Assay results: PMC2997425, “Acetazolamide-based fungal chitinase inhibitors” (Bioorganic & Medicinal Chemistry, 2010)
Counter-ions that a name gives are not always drawn. Like-named read-outs stand apart in the source and are kept apart here. One block for each molecule: values may come before it.

How the values were obtained:
AfChiA1 = AfChiA1 (Aspergillus fumigatus, UniProt Q873Y0); assay: biochemical; assay type: biochemical; details: for inhibition at 1000 µM: read-out: % inhibition at 1 mM
hCHT (human chitinase) = hCHT (human chitinase) (Homo sapiens, UniProt Q13231); assay: hCHT (human chitinase) inhibition; assay type: biochemical
hevamine = molecular target: hevamine; design: method as in PMID 10922481; details: read-out: Ki against hevamine; cited from earlier work
[1] = human chitinase, read-out: hCHT IC50
[2] = Table 3, 4-parameter logistic fit

Chain of AfChiA1 (Q873Y0 29-335): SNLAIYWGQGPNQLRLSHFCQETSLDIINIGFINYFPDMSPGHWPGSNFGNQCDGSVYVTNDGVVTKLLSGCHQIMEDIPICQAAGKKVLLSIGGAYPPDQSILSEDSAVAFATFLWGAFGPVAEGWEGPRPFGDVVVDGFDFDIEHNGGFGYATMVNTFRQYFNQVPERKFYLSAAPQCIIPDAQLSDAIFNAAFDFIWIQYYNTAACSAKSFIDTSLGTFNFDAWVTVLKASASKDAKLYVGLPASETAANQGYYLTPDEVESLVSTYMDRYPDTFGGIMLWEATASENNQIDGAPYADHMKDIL
Chain of hCHT (human chitinase) (Q13231 22-466): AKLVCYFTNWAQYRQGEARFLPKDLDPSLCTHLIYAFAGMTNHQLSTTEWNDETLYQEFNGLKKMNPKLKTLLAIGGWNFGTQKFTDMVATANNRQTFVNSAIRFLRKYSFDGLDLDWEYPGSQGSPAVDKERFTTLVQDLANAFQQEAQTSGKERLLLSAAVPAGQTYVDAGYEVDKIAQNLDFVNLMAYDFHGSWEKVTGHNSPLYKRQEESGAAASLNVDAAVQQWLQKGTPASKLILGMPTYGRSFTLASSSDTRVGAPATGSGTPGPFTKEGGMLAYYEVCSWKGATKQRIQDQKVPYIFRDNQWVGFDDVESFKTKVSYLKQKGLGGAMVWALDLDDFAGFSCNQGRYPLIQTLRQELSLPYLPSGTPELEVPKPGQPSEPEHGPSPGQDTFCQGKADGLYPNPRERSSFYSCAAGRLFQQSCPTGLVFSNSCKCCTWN

SMILES: CC(=O)Nc1nncs1 (as salt: salt) [Compound 7, 5-acetamido-1,3,4-thiadiazole]
melting point: 276 to 277 °C

SMILES: Cn1c(=O)c2[nH]c(Cl)nc2n(C)c1=O [8-Chloro-theophylline, 8-chlorotheophylline, reference compound]
Hill slope (AfChiA1): 1.0
IC50 (hCHT (human chitinase); [1]): > 2500 µM

SMILES: CC(=O)N[C@H]1[C@H](O[C@H]2[C@@H](O)[C@@H](NC(C)=O)[C@H](O[C@H]3[C@H](O)[C@H]4N=C(N(C)C)O[C@H]4[C@@H]3CO)O[C@@H]2CO)O[C@H](CO)[C@@H](O)[C@H]1O [Allosamidin, reference compound]
Hill slope (AfChiA1; Fig. 1, triplicate, four-parameter logistic fit): 0.9
Ki (hevamine): 3.1 µM

IC50 (hCHT (human chitinase); [1]): > 1000 µM
SMILES: CC(=O)Nc1nnc(S(N)(=O)=O)s1 [Compound 1, acetazolamide]

SMILES: CCC(=O)Nc1nnc(S(N)(=O)=O)s1 [Compound 2, 5-propylamido-2-sulfamoyl-1,3,4-thiadiazole]
Hill slope (AfChiA1): 0.71
inhibitory activity against AfChiA1 (in words) (AfChiA1): reduction in activity
inhibition at 1000 µM (AfChiA1): 76%

SMILES: NS(=O)(=O)c1nnc(NC(=O)c2ccccc2)s1 [Compound 5, 5-benzylamido-2-sulfamoyl-1,3,4-thiadiazole]
Hill slope (AfChiA1; [2]): 0.5
inhibition at 1000 µM (AfChiA1): 51%

SMILES: Nc1nnc(S(N)(=O)=O)s1 [Compound 6, 5-amino-2-sulfamoyl-1,3,4-thiadiazole monohydrochloride]
inhibitory activity against AfChiA1 (in words) (AfChiA1): abolishes inhibitory activity

SMILES: CC(=O)Nc1nncs1 [Compound 7, 5-acetamido-1,3,4-thiadiazole]
inhibitory activity against AfChiA1 (in words) (AfChiA1): abrogate activity

SMILES: CC(=O)Nc1nnc(C)s1 [Compound 8]
inhibitory activity against AfChiA1 (in words) (AfChiA1): abrogate activity

SMILES: CC(=O)Nc1nnc(S)s1 [Compound 9, 5-Acetamido-2-thiol-1,3,4-thiadiazole]
Hill slope (AfChiA1; [2]): 1.1

SMILES: CC(=O)Nc1nnc(-c2ccccc2)s1 [Compound 10]
Hill slope (AfChiA1; [2]): 0.5

SMILES: CC(=O)Nc1nnc(C(F)(F)F)s1 [Compound 11]
Hill slope (AfChiA1; [2]): 1.1

SMILES: CC(=O)Nc1nnc(Br)s1 [Compound 12]
Hill slope (AfChiA1; [2]): 0.7

SMILES: COc1cccc(CSc2nnc(NC(C)=O)s2)c1 [Compound 14]
inhibition at 1000 µM (AfChiA1): 38%

SMILES: O=C(Nc1nnc(-c2ccccc2)s1)C(F)(F)F [Compound 15]
Hill slope (AfChiA1): 1.2
inhibition at 1000 µM (AfChiA1): 85%

SMILES: O=C(Nc1nnc(N2CCN(c3cccc(Cl)c3)CC2)s1)C(F)(F)F [Compound 17]
inhibition at 1000 µM (AfChiA1): 30%

SMILES: CC(C)Cc1nnc(NC(=O)CCl)s1 [Compound 20]
inhibitory activity against AfChiA1 (in words) (AfChiA1): reduction in activity

SMILES: O=C(CCl)Nc1nnc(C(F)(F)F)s1 [Compound 21]
inhibitory activity against AfChiA1 (in words) (AfChiA1): reduction in activity

SMILES: c1coc(CNc2ncnc3[nH]cnc23)c1 [Kinetin, reference compound]
inhibitory activity against AfChiA1 (in words) (AfChiA1): failed to show any discernable effect
IC50 (hCHT (human chitinase)): > 1000 µM
